From US7902373B2 (Pfizer Inc, priority 2006, dated 2011)

Assays:
human recombinant H-PGDS = human recombinant H-PGDS (Homo sapiens, UniProt O60760); assay: Fluorescence intensity h-PGDS TBA enzyme assay; assay type: biochemical; settings: Examples up to 622 (and 3a, 3b)
[1] = system: A. suum antigen-induced asthmatic response in conscious sheep; assay: In vivo assay, anti-asthmatic effects in a sheep model of asthma; settings: i.v. infusion, single dose of 1, 0.3 or 0.1 mg/kg, specific lung resistance (RL)
Description: In vivo Assay—Anti-Asthmatic Effects in a Sheep Model of Asthma A validated model of A. suum antigen-induced asthmatic response in conscious sheep was used to evaluate the pharmacokinetic properties, inhibition of antigen-induced early and late airway bronchoconstriction in the lung by compound (Abraham, W. M., et al., Am Rev Respir Dis 1991; 143:787-796). […] An aerosol of A. suum extract, generated using a disposable medical nebulizer (Raindrop®, Puritan Bennett) was delivered in at a tidal volume of 500 mL and a rate of 20 breaths/min. A compound of Example 2 was delivered by i.v. infusion over the interval t=0-20 min prior to antigen challenge. A single dose of 1, 0.3 or 0.1 mg//kg was evaluated. Baseline and post-drug measurements of specific lung resistance (RL) were obtained immediately prior to challenge (t=30 min) with A. suum antigen, immediately after challenge and then hourly from 1 to 6 h post challenge and on the half-hour from 6.5, 5-8 h post challenge. Measurements of RL were obtained 24 h post challenge, followed by the 24 h post-challenge dose-response curve for carbachol. […] To assess airway responsiveness, the cumulative carbachol dose in breath units (BU) that increased RL 400% over the post-buffer value (i.e., PC400) were calculated from the dose-response curve. […]

Sequence of human recombinant H-PGDS (O60760 whole entry, the tested form may be a part): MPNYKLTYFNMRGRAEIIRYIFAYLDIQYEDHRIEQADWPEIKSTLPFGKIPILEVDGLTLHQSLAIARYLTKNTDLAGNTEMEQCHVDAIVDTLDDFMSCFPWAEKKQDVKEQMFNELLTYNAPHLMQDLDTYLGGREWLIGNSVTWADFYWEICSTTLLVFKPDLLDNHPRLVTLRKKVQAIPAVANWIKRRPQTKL

- IC50 (human recombinant H-PGDS): 852 pM
SMILES: O=C(NC1CCN(CC(F)(F)F)CC1)c1ccc(-c2cccc(F)c2)nc1 [Example 2, 6-(3-Fluorophenyl)-N-(1-(2,2,2-trifluoroethyl)piperidin-4-yl)nicotinamide]
- early airway response (0-2 h after allergen challenge) [1]: not reduced
- late airway response (4-8 h after antigen challenge) inhibited [1]: approximately 60%
